According to patent US12297194B2, “N2-phenylpyrimidine-2,4-diamine compounds, and preparation methods and methods of use thereof” (BRIDGE BIOTHERAPEUTICS, INC., priority 2021, dated 2025):

Assays:
Assay type in all cases: cell-based, murine
Ba/F3 EGFR Wild-type = Ba/F3 EGFR Wild-type (Homo sapiens, UniProt P00533); test: CellTiter-Glo cell viability, Ba/F3 EGFR wild-type cells; conditions: 72 hours, read-out: Ba/F3 EGFR mutant cell (IC50, nM) WT
Procedure: (§1) In order to evaluate an inhibitory ability on wild-type Ba/F3 EGFR and Ba/F3 EGFR mutations in Ba/F3 cell lines by the compounds of Formula 1, the experiment was carried out as described below.
(§2) The measurement of activities on Ba/F3 cells harboring wild-type EGFR and EGFR mutants by the compounds of the present invention were determined utilizing the CELLTITER-GLO™ system from Promega, as follows. The CELLTITER-GLO™ assay is a method for measuring the ATP present in cells to determine the cell viability. Ba/F3 EGFR wild-type and Ba/F3 EGFR L858R/C797S (L/C), Ba/F3 EGFR L858R/T790M/C797S (L/T/C), Ba/F3 EGFR Del19/T790M (D/T), Ba/F3 EGFR Del19/C797S (D/C), Ba/F3 EGFR Del19/T790M/C797S (D/T/C) mutant cell lines were maintained in RPMI1640, containing […], 1% penicillin-streptomycin, […] puromycin. Cells were grown in a humidified incubator at 37° C. with […].
(§3) The analysis of an EGFR inhibitory activity by the compounds was carried out in accordance with the analysis reaction recipe below.
(§4) 2500 cells/90 μL were seeded in 96 well cell culture plate, and after 24 hours, treated with the compounds represented by Formula 1 in concentrations of 0, 0.3, 0.9, 2.7, 8.2, 24.7, 74.1, 222.2, 666.7, 2000 (nM). After the reaction of 72 hours, the plate was incubated for 30 minutes at ambient temperature, and then, was further treated with 100 μL of the CELLTITER-GLO™ reagent and was shaken for 10 minutes at ambient temperature. Finally, measurement of the luminescence values were obtained using the SPECTRAMAX™ iD3 (Molecular Devices), and the IC50 values of the compound were analyzed using the GraphPad Prism program (version 9.0.2, GraphPad Software, Inc.).

[1] = biological target: Ba/F3 EGFR L858R/C797S mutants (Homo sapiens, UniProt P00533, C797S/L858R, cells depend on it); test: CellTiter-Glo cell viability, Ba/F3 EGFR L858R/C797S cells; conditions: 72 hours, read-out: Ba/F3 EGFR mutant cell (IC50, nM) L/C
Chain of Ba/F3 EGFR L858R/C797S mutants (P00533 whole entry C797S/L858R): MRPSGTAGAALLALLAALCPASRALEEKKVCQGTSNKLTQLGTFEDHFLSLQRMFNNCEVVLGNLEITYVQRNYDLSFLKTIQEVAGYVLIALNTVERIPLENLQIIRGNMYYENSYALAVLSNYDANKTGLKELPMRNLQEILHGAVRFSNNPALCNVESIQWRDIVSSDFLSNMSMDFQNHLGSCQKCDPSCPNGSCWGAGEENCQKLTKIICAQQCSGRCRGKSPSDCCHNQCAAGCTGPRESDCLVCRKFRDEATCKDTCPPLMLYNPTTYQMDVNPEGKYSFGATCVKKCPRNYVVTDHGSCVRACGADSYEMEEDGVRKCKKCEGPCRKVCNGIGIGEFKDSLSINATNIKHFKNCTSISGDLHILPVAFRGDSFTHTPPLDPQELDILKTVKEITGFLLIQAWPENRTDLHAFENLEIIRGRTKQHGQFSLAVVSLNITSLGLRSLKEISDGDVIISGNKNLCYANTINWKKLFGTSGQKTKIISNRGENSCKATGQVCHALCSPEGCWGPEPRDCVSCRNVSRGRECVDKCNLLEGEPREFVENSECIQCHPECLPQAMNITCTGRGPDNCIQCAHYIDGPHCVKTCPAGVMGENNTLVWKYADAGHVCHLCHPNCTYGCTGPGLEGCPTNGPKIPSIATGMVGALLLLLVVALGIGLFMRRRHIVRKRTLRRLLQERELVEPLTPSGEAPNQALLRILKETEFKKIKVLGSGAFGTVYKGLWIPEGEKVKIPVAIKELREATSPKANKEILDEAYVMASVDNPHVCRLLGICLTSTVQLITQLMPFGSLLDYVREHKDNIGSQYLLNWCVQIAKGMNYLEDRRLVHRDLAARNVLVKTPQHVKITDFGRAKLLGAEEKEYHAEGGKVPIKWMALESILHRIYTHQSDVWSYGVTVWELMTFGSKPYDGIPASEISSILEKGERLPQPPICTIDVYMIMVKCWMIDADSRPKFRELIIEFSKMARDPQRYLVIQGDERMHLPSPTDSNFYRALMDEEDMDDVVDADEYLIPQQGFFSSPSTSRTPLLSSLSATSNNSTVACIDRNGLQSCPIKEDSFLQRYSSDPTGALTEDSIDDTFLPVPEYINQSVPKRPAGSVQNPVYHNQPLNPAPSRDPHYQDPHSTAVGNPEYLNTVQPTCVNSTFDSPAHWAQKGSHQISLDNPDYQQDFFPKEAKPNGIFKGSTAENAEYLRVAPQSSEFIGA
Procedure: as §1, §2, §3, §4

[2] = biological target: Ba/F3 EGFR L858R/T790M/C797S mutants (Homo sapiens, UniProt P00533, T790M/C797S/L858R, cells depend on it); test: CellTiter-Glo cell viability, Ba/F3 EGFR L858R/T790M/C797S cells; conditions: 72 hours, read-out: Ba/F3 EGFR mutant cell (IC50, nM) L/T/C
Chain of Ba/F3 EGFR L858R/T790M/C797S mutants (P00533 whole entry T790M/C797S/L858R): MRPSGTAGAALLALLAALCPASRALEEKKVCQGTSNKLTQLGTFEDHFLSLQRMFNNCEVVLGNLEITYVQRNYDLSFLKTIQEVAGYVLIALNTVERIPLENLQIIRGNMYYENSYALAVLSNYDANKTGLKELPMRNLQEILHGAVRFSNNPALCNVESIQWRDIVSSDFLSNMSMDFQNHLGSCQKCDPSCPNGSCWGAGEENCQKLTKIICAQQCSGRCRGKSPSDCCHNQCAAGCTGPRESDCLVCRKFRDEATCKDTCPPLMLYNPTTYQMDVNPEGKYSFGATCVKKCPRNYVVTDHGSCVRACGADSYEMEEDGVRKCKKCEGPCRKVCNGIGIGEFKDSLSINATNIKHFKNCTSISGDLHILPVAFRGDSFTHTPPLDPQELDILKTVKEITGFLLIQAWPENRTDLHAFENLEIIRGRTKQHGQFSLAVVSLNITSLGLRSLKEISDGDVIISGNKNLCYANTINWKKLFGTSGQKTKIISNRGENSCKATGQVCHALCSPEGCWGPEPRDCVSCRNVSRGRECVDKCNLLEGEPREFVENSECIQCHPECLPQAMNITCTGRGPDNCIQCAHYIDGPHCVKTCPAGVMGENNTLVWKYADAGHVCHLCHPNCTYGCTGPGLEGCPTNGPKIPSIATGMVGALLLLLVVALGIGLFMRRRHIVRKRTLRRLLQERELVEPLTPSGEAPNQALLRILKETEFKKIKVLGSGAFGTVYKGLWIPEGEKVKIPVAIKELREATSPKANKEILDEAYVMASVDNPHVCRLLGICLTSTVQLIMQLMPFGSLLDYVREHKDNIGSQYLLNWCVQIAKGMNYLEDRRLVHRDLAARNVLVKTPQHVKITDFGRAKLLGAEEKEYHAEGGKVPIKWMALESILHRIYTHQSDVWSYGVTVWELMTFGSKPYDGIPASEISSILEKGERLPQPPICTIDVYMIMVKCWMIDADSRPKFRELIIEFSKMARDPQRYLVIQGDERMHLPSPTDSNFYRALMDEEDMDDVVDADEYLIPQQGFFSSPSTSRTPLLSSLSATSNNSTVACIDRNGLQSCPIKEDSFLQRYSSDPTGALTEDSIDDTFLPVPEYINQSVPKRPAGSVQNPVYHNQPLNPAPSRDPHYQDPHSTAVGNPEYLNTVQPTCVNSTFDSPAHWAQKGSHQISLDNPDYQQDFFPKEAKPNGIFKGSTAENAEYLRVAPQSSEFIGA
Procedure: as §1, §2, §3, §4

[3] = biological target: Ba/F3 EGFR Del19/T790M mutants (Homo sapiens, UniProt P00533, T790M, cells depend on it, form not given); test: CellTiter-Glo cell viability, Ba/F3 EGFR Del19/T790M cells; conditions: 72 hours, read-out: Ba/F3 EGFR mutant cell (IC50, nM) D/T
Chain of Ba/F3 EGFR Del19/T790M mutants (P00533 with tags, fused parts or gaps DEL746-750/T790M, form open): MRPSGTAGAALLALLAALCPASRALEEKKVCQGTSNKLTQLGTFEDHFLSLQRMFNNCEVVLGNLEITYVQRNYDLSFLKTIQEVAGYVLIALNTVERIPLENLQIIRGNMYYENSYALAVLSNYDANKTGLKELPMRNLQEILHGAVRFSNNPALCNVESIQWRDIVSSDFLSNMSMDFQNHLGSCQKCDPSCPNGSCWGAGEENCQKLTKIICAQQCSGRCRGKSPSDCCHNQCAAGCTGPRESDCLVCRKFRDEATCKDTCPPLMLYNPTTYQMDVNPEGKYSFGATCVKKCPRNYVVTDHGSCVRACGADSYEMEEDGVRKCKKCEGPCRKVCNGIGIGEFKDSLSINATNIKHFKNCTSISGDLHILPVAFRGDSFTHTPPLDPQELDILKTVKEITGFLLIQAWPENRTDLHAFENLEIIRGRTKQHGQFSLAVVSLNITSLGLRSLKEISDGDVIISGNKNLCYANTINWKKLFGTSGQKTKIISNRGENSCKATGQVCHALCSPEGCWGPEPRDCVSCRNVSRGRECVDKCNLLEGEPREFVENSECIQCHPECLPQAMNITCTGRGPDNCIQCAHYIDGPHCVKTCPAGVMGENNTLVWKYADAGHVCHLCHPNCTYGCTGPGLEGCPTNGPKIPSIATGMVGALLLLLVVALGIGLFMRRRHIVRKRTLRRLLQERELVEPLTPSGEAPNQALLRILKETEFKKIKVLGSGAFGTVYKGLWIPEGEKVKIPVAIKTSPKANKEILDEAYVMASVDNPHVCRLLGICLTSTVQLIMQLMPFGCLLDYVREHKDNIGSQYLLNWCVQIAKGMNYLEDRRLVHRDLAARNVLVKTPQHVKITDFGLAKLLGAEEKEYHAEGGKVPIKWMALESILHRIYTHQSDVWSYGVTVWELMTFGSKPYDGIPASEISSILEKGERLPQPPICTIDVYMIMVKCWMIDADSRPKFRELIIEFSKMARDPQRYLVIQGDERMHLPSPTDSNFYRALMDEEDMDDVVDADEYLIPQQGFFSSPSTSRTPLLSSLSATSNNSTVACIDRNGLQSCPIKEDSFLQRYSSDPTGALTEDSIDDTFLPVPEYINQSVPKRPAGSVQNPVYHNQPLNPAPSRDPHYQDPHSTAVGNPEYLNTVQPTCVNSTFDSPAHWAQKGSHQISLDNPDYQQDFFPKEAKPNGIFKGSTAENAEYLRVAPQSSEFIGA
Procedure: as §1, §2, §3, §4

[4] = biological target: Ba/F3 EGFR Del19/C797S mutants (Homo sapiens, UniProt P00533, C797S, cells depend on it, form not given); test: CellTiter-Glo cell viability, Ba/F3 EGFR Del19/C797S cells; conditions: 72 hours, read-out: Ba/F3 EGFR mutant cell (IC50, nM) D/C
Procedure: as §1, §2, §3, §4

[5] = biological target: Ba/F3 EGFR Del19/T790M/C797S mutants (Homo sapiens, UniProt P00533, T790M/C797S, cells depend on it, form not given); test: CellTiter-Glo cell viability, Ba/F3 EGFR Del19/T790M/C797S cells; conditions: 72 hours, read-out: Ba/F3 EGFR mutant cell (IC50, nM) D/T/C
Procedure: as §1, §2, §3, §4

Chain of Ba/F3 EGFR Wild-type (P00533 whole entry, change not shown): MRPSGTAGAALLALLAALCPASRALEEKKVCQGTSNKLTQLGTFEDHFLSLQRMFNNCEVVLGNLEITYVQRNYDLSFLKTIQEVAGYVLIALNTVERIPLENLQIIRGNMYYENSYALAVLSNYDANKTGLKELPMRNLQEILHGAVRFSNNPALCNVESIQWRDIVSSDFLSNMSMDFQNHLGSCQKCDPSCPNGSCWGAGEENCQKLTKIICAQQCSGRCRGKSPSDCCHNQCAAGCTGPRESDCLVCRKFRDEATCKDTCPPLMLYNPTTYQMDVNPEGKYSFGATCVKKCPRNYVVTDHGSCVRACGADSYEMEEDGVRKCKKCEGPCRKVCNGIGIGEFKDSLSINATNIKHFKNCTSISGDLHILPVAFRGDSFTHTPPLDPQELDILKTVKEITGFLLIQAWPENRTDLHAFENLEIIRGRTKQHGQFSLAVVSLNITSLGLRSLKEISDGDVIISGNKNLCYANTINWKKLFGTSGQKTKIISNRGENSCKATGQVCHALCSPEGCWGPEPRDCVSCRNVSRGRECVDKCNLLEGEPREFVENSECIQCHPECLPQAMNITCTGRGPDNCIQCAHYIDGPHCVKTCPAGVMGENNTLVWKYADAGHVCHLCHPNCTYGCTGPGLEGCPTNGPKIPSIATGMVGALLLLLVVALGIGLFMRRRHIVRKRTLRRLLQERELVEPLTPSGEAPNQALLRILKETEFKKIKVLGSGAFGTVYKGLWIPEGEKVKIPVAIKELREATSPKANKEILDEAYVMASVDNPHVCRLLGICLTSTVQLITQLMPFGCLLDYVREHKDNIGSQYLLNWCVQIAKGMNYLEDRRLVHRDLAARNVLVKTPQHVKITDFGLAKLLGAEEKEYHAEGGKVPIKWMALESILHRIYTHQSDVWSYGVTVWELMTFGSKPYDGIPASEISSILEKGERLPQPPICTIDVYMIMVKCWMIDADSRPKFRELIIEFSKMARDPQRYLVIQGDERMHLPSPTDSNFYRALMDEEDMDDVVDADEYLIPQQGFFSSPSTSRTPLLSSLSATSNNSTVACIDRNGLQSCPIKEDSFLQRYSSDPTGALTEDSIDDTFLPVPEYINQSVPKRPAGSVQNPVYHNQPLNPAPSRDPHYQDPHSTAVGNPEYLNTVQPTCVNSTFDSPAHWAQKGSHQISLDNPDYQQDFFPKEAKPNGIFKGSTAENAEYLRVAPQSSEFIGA

COc1cc(N2CCC(N3CCN(C)CC3)CC2)c(C)cc1Nc1ncc(Cl)c(Nc2ccc3nccnc3c2NS(C)(=O)=O)n1 [Example A1, N-(6-((5-chloro-2-((2-methoxy-5-methyl-4-(4-(4-methylpiperazin-1-yl)piperidin-1-yl)phenyl)amino)pyrimidin-4-yl)amino)quinoxalin-5-yl)methanesulfonamide]
GI50 (Ba/F3 EGFR Wild-type): 312 nM
GI50 [1]: 33 nM
GI50 [2]: 17 nM
GI50 [3]: 7 nM
GI50 [4]: 17 nM
GI50 [5]: 6 nM

CCc1cc(Nc2ncc(Cl)c(Nc3ccc(OC)cc3NS(C)(=O)=O)n2)c(OC)cc1N1CCC(N2CCOCC2)CC1 [Example C14, N-(2-((5-chloro-2-((5-ethyl-2-methoxy-4-(4-morpholinopiperidin-1-yl)phenyl)amino)pyrimidin-4-yl)amino)-5-methoxyphenyl) methanesulfonamide]
GI50 (Ba/F3 EGFR Wild-type): 415 nM
GI50 [1]: 22 nM
GI50 [2]: 21 nM
GI50 [3]: 2 nM
GI50 [4]: 4 nM
GI50 [5]: 4 nM

CCCc1cc(Nc2ncc(Cl)c(Nc3ccc(OC)cc3NS(C)(=O)=O)n2)c(OC)cc1N1CCC(N(C)C)CC1 [Example C12, N-(2-((5-chloro-2-((4-(4-(dimethylamino)piperidin-1-yl)-2-methoxy-5-propylphenyl)amino)pyrimidin-4-yl)amino)-5-methoxyphenyl)methanesulfonamide]
GI50 (Ba/F3 EGFR Wild-type): 731 nM
GI50 [1]: 28 nM
GI50 [2]: 29 nM
GI50 [3]: 8 nM
GI50 [4]: 6 nM
GI50 [5]: 9 nM

COc1cc(C2CCNCC2)c(C)cc1Nc1ncc(Br)c(Nc2ccc3nccnc3c2NS(C)(=O)=O)n1 [Example B11, N-(6-((5-bromo-2-((2-methoxy-5-methyl-4-(piperidin-4-yl)phenyl)amino)pyrimidin-4-yl)amino)quinoxalin-5-yl)methanesulfonamide]
GI50 (Ba/F3 EGFR Wild-type): 1270 nM
GI50 [1]: 781 nM
GI50 [2]: 264 nM
GI50 [3]: 443 nM
GI50 [4]: 583 nM
GI50 [5]: 725 nM

CCCc1cc(Nc2ncc(F)c(Nc3ccc4nccnc4c3NS(C)(=O)=O)n2)c(OC)cc1N1CCC(N2CCN(C)CC2)CC1 [Example A32, N-(6-((5-fluoro-2-((2-methoxy-4-(4-(4-methylpiperazin-1-yl)piperidin-1-yl)-5-propylphenyl)amino)pyrimidin-4-yl)amino)quinoxalin-5-yl)methanesulfonamide]
GI50 (Ba/F3 EGFR Wild-type): 603 nM
GI50 [1]: 51 nM
GI50 [2]: 229 nM
GI50 [3]: 27 nM
GI50 [4]: 11 nM
GI50 [5]: 91 nM

CCc1cc(Nc2ncc(Br)c(Nc3ccc4nccnc4c3N(C)S(C)(=O)=O)n2)c(OC)cc1N1CCC(N2CC3CCC2CN3C)CC1 (stereo not drawn) [Example A48, N-(6-((5-bromo-2-((5-ethyl-2-methoxy-4-(4-(5-methyl-2,5-diazabicyclo[2.2.2]octan-2-yl)piperidin-1-yl)phenyl)amino)pyrimidin-4-yl)amino)quinoxalin-5-yl)-N-methylmethanesulfonamide]
GI50 (Ba/F3 EGFR Wild-type): 601 nM
GI50 [1]: 112 nM
GI50 [2]: 28 nM
GI50 [3]: 9 nM
GI50 [4]: 6 nM
GI50 [5]: 17 nM

CCc1cc(Nc2ncc(Br)c(Nc3ccc4nccnc4c3N(C)S(C)(=O)=O)n2)c(OC)cc1N1CC2(CCN2C(C)C)C1 [Example B31, N-(6-((5-bromo-2-((5-ethyl-4-(1-isopropyl-1,6-diazaspiro[3.3]heptan-6-yl)-2-methoxyphenyl)amino)pyrimidin-4-yl)amino)quinoxalin-5-yl)-N-methylmethanesulfonamide]
GI50 (Ba/F3 EGFR Wild-type): 482 nM
GI50 [1]: 43 nM
GI50 [2]: 43 nM
GI50 [3]: 8 nM
GI50 [4]: 15 nM
GI50 [5]: 6 nM

COc1cc(N2CCC(N3CCN(C)CC3)CC2)c(C)cc1Nc1ncc(C)c(Nc2ccc3nccnc3c2NS(C)(=O)=O)n1 [Example A21, N-(6-((2-((2-methoxy-5-methyl-4-(4-(4-methylpiperazin-1-yl)piperidin-1-yl)phenyl)amino)-5-methylpyrimidin-4-yl)amino)quinoxalin-5-yl)methane sulfonamide]
GI50 (Ba/F3 EGFR Wild-type): 460 nM
GI50 [1]: 52 nM
GI50 [2]: 103 nM
GI50 [3]: 24 nM
GI50 [4]: 23 nM
GI50 [5]: 58 nM

CCc1cc(Nc2ncc(Cl)c(Nc3ccc4nccnc4c3N(C)S(C)(=O)=O)n2)c(OC)cc1N1CCC(N2CCOCC2)CC1 [Example A40, N-(6-((5-chloro-2-((5-ethyl-2-methoxy-4-(4-morpholinopiperidin-1-yl)phenyl)amino)pyrimidin-4-yl)amino)quinoxalin-5-yl)-N-methylmethanesulfonamide]
GI50 (Ba/F3 EGFR Wild-type): 845 nM
GI50 [1]: 50 nM
GI50 [2]: 94 nM
GI50 [3]: 10 nM
GI50 [4]: 10 nM
GI50 [5]: 12 nM

CN[C@@H]1CN(c2ccc(Nc3ncc(Cl)c(Nc4ccc5nccnc5c4NS(C)(=O)=O)n3)c(OC)c2)C[C@H]1F [Example D5]
GI50 (Ba/F3 EGFR Wild-type): 1720 nM
GI50 [1]: 680 nM
GI50 [2]: 1320 nM
GI50 [3]: 466 nM
GI50 [4]: 595 nM
GI50 [5]: 699 nM

CCc1cc(Nc2ncc(Br)c(Nc3ccc4nccnc4c3N(C)S(C)(=O)=O)n2)c(OC)cc1N1CC2(C1)CN(C(C)C)C2 [Example B29, N-(6-((5-bromo-2-((5-ethyl-4-(6-isopropyl-2,6-diazaspiro[3.3]heptan-2-yl)-2-methoxyphenyl)amino)pyrimidin-4-yl)amino)quinoxalin-5-yl)-N-methylmethanesulfonamide]
GI50 (Ba/F3 EGFR Wild-type): 317 nM
GI50 [1]: 27 nM
GI50 [2]: 68 nM
GI50 [3]: 9 nM
GI50 [4]: 14 nM
GI50 [5]: 2 nM

COc1cc(N2CCOCC2)c(C)cc1Nc1ncc(Br)c(Nc2ccc3nccnc3c2S(C)(=O)=O)n1 [Example D1, 5-bromo-N2-(2-methoxy-5-methyl-4-morpholinophenyl)-N4-(5-(methylsulfonyl)quinoxalin-6-yl)pyrimidine-2,4-diamine]
GI50 (Ba/F3 EGFR Wild-type): > 2000 nM
GI50 [1]: 1120 nM
GI50 [2]: 536 nM
GI50 [3]: 477 nM
GI50 [4]: 1010 nM
GI50 [5]: 959 nM

COc1cc(N2CC[C@H](N3CCN(C)CC3)[C@H](F)C2)ccc1Nc1ncc(Cl)c(Nc2ccc3nccnc3c2NS(C)(=O)=O)n1 [Example A35, N-(6-((5-chloro-2-((4-((3R,4S)-3-fluoro-4-(4-methylpiperazin-1-yl)piperidin-1-yl)-2-methoxyphenyl)amino)pyrimidin-4-yl)amino)quinoxalin-5-yl)methane sulfonamide]
GI50 (Ba/F3 EGFR Wild-type): 576 nM
GI50 [1]: 335 nM
GI50 [2]: 659 nM
GI50 [3]: 219 nM
GI50 [4]: 145 nM
GI50 [5]: 272 nM

CCc1cc(Nc2ncc(Cl)c(Nc3ccc4nccnc4c3NS(C)(=O)=O)n2)c(OC)cc1N1CC2(C1)CN(C(C)C)C2 [Example B26, N-(6-((5-chloro-2-((5-ethyl-4-(6-isopropyl-2,6-diazaspiro[3.3]heptan-2-yl)-2-methoxyphenyl)amino)pyrimidin-4-yl)amino)quinoxalin-5-yl)methanesulfonamide]
GI50 (Ba/F3 EGFR Wild-type): 528 nM
GI50 [1]: 59 nM
GI50 [2]: 61 nM
GI50 [3]: 38 nM
GI50 [4]: 42 nM
GI50 [5]: 9 nM

COc1cc(N2CCC(N3CCN(C)CC3)CC2)c(C)cc1Nc1ncc(Cl)c(Nc2cccc(OC)c2NS(C)(=O)=O)n1 [Example C24, N-(2-((5-chloro-2-((2-methoxy-5-methyl-4-(4-(4-methylpiperazin-1-yl)piperidin-1-yl)phenyl)amino)pyrimidin-4-yl)amino)-6-methoxyphenyl)methanesulfonamide]
GI50 (Ba/F3 EGFR Wild-type): 605 nM
GI50 [1]: 41 nM
GI50 [2]: 83 nM
GI50 [3]: 14 nM
GI50 [4]: 6 nM
GI50 [5]: 7 nM
